Assay results: patent publication US20110104055A1, “SUBSTITUTED N-ARYL BENZAMIDES AND RELATED COMPOUNDS FOR TREATMENT OF AMYLOID DISEASES AND SYNUCLEINOPATHIES” (priority 2002, published 2011)

What was measured:
Format in all cases: biochemical
[1] = biological target: T1, α-synuclein fibrils (Homo sapiens, UniProt P37840); test: Congo red binding assay, α-synuclein fibrils (Example 12); settings: 3-day incubation
T1 construct: purchased rPeptide
Method: (§1) In the Congo red binding assay, the ability of a given test compound to alter amyloid (in this case, α-synuclein) binding to Congo red is quantified. In this assay, α-synuclein and test compounds were incubated for 3 days and then vacuum filtered through a 0.2 μm filter. The amount of α-synuclein retained in the filter was then quantitated following staining of the filter with Congo red. After appropriate washing of the filter, any lowering of the Congo red color on the filter in the presence of the test compound (compared to the Congo red staining of the amyloid protein in the absence of the test compound) was indicative of the test compound's ability to diminish/alter the amount of aggregated and congophilic α-synuclein.
In one study, the ability of α-synuclein fibrils to bind Congo red in the absence or presence of increasing amounts of compounds DC-0051-F1, F2, F3, F4, F5, F6 and EDTA (at α-synuclein:test compound weight ratios of 1:1, 1:0.1, 1:0.01 or 1:0.001) was determined.

[2] = biological target: T2, Aβ 1-42 fibrils (Homo sapiens, UniProt P05067); test: Thioflavin T fluorometry, disruption of pre-formed Aβ 1-42 fibrils (Example 11); settings: 30 μg pre-fibrillized Aβ 1-42, 37° C., 3 days
T2 construct: purchased Bachem Inc
Text: In one study, Thioflavin T fluorometry was used to determine the effects of the compounds, and of EDTA (as a negative control). In this assay Thioflavin T binds specifically to fibrillar amyloid, and this binding produces a fluorescence enhancement at 485 nm that is directly proportional to the amount of amyloid fibrils formed. The higher the fluorescence, the greater the amount of amyloid fibrils formed (Naki et al., Lab. Invest. 65:104-110, 1991; Levine III, Protein Sci. 2:404-410, 1993; Amyloid: Int. J. Exp. Clin. Invest. 2:1-6, 1995).
(§2) Following 3-days of co-incubation, 50 μl of each incubation mixture was transferred into a 96-well microtiter plate containing 150 μl of distilled water and 50 μl of a Thioflavin T solution (i.e. 500 mM Thioflavin T in 250 mM phosphate buffer, pH 6.8). The fluorescence was read at 485 nm (444 nm excitation wavelength) using an ELISA plate fluorometer after subtraction with buffer alone or compound alone, as blank.

[3] = biological target: T2, Aβ 1-42 fibrils; test: Congo red binding assay, Aβ 1-42 fibrils (Example 11); settings: 3-day incubation
Method: as §1, with “a” for “a given”, “Aβ)” for “α-synuclein)”, “Aβ 1-42” for “α-synuclein”, “Aβ.” for “α-synuclein.”
In one study, the ability of Aβ fibrils to bind Congo red in the absence or presence of increasing amounts of the compounds or EDTA (at Aβ:test compound weight ratios of 1:1, 1:0.1, 1:0.01 or 1:0.001) was determined.

[4] = biological target: T1, α-synuclein fibrils; test: Thioflavin T fluorometry, disruption of pre-formed α-synuclein fibrils (Example 12); settings: 3 days; for disruption/disassembly of pre-formed α-synuclein fibrils, in words: Thioflavin T fluorometry, all concentrations tested; for % Inhibition α-synuclein (result ± S.D.), Thioflavin T fluorometry: 30 μg pre-fibrillized α-synuclein, 37° C.
Method: In this assay, Thioflavin T binds specifically to α-synuclein fibrils, and this binding produces a fluorescence enhancement at 485 nm that is directly proportional to the amount of α-synuclein fibrils present. The higher the fluorescence, the greater the amount of α-synuclein fibrils present (Naki et al, Lab. Invest. 65:104-110, 1991; Levine III, Protein Sci. 2:404-410, 1993; Amyloid: Int. J. Exp. Clin. Invest. 2:1-6, 1995).
as §2, with “In this study, 30 μg of pre-fibrillized α-synuclein (rPeptide) was incubated at 37° C. for 3 days either alone or in the presence of compounds DC-0051-F1, F2, F3, F4, F5, F6 or EDTA (at α-synuclein:test compound weight ratios of 1:1, 1:0.1, 1:0.01 or 1:0.001). Following” for “Following”

[5] = α-synuclein:test compound wt/wt ratio 1:0.001
[6] = α-synuclein:test compound wt/wt ratio 1:0.01
[7] = α-synuclein:test compound wt/wt ratio 1:0.1
[8] = α-synuclein:test compound wt/wt ratio 1:1
[9] = Aβ:test compound wt/wt ratio 1:0.001
[10] = Aβ:test compound wt/wt ratio 1:0.01
[11] = Aβ:test compound wt/wt ratio 1:0.1
[12] = Aβ:test compound wt/wt ratio 1:1

T2 sequence (P05067 672-713): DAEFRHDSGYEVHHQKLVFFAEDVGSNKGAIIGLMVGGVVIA

Compound	% Inhibition α-synuclein (result ± S.D.), Congo red binding [1, 5] [%]	% Inhibition α-synuclein (result ± S.D.), Congo red binding [1, 6] [%]	% Inhibition α-synuclein (result ± S.D.), Congo red binding [1, 7] [%]	% Inhibition α-synuclein (result ± S.D.), Congo red binding [1, 8] [%]	% Inhibition Aβ (result ± S.D.), Thioflavin T fluorometry [2, 9] [%]	% Inhibition Aβ (result ± S.D.), Thioflavin T fluorometry [2, 10] [%]	% Inhibition Aβ (result ± S.D.), Thioflavin T fluorometry [2, 11] [%]	% Inhibition Aβ (result ± S.D.), Thioflavin T fluorometry [2, 12] [%]	% Inhibition Aβ (result ± S.D.), Congo red binding [3, 9] [%]	% Inhibition Aβ (result ± S.D.), Congo red binding [3, 10] [%]	% Inhibition Aβ (result ± S.D.), Congo red binding [3, 11] [%]	% Inhibition Aβ (result ± S.D.), Congo red binding [3, 12] [%]	disruption/disassembly of pre-formed α-synuclein fibrils, in words [4]	% Inhibition α-synuclein (result ± S.D.), Thioflavin T fluorometry [4, 5] [%]	% Inhibition α-synuclein (result ± S.D.), Thioflavin T fluorometry [4, 6] [%]	% Inhibition α-synuclein (result ± S.D.), Thioflavin T fluorometry [4, 7] [%]	% Inhibition α-synuclein (result ± S.D.), Thioflavin T fluorometry [4, 8] [%]
O=C(Nc1cc(O)c(O)c(F)c1)c1ccc(O)c(O)c1 [DC-0051-F4, N-(3-fluoro-4,5-dihydroxyphenyl)-3,4-dihydroxybenzamide]	6.1 ± 8.92	0.0 ± 3.44	18.0 ± 0.58	64.8 ± 5.08	16.0 ± 6.64	33.4 ± 2.09	79.8 ± 0.77	99.7 ± 0.58	4.3 ± 11.81	8.8 ± 5.07	10.9 ± 5.05	71.0 ± 2.39	dose-dependent disruption/disassembly	6.1 ± 9.44	40.6 ± 1.49	94.3 ± 1.22	100.0 ± 2.84
O=C(Nc1cc(O)c(O)cc1F)c1ccc(O)c(O)c1 [DC-0051-F5, N-(2-fluoro-4,5-dihydroxyphenyl)-3,4-dihydroxybenzamide]	0.0 ± 1.01	5.0 ± 5.47	32.7 ± 3.96	69.4 ± 0.13	19.5 ± 1.49	43.9±2.01	91.8±0.22	99.8 ± 0.40	0.0 ± 2.50	9.8 ± 2.54	25.7 ± 5.69	69.9 ± 2.06	dose-dependent disruption/disassembly	5.9 ± 10.41	59.0 ± 1.18	94.7 ± 1.70	98.9 ± 0.65
O=C(Nc1ccc(O)c(O)c1F)c1ccc(O)c(O)c1 [DC-0051-F6, N-(2-fluoro-3,4-dihydroxyphenyl)-3,4-dihydroxybenzamide]	0.0 ± 4.20	1.4 ± 5.69	29.9 ± 2.41	59.8 ± 3.62	9.6 ± 0.96	36.8 ± 3.43	88.0 ± 1.09	99.4 ± 0.86	3.7 ± 3.24	6.8 ± 1.51	18.3 ± 5.32	68.0 ± 2.11	dose-dependent disruption/disassembly	4.2 ± 5.02	56.2 ± 1.49	94.7 ± 0.68	100.0 ± 1.98
